US20060025390A1, “Treatment of hormone allergy and related symptoms and disorders” (priority 2004, published 2006)

Assays:
women with acute asthma = assay: Symptom relief in women with acute asthma after intradermal progesterone (0 to 10 scale); format: in vivo, human
Protocol: To test this hypothesis, 142 women with acute asthma were asked to evaluate the severity of their symptoms using an eleven point scale. Ten was assigned to the most severe symptoms, while 0 was assigned to an absence of symptoms. Immediately after assessing their symptoms on this scale, patents were administered 0.5 mg of progesterone by intradermal injection.
Approximately 15 to 30 seconds after the injection was administered, each patient was asked if their symptoms were worse, better, or unchanged. Each patient was also asked to rate their present symptoms on the same 0 to 10 scale.
Of the 142 patients tested 129 (91%) positively responded to the treatment. Using the random effects calculations described in Example 2, this correlates to a less than 0.1% chance that the results are random. Thus the results may be considered highly significant.
Hormone samples may be prepared in any way suitable for the intended administration route. For administration through intradermal injection, samples may be prepared as they were in the studies of Examples 2 and 3. Specifically, the progesterone was formulated from commercially available injectable progesterone. Each ml of the final formulation contained […] of progesterone and 10% benzyl alcohol as a preservative in sesame oil. 0.1 ml was administered per patient intradermally. Estrogen samples were similarly prepared.

[1] = test system: serum IgM anti-17-α-hydroxyprogesterone antibodies; assay: ELISA binding of IgM 17-α-hydroxyprogesterone antibodies to different hormones in solid phase; design: species or system human; conditions: for IgM binding (optical density): hormone in solid phase, 405 nm; for IgM % reaction: relative to 17-α-hydroxyprogesterone = 100
Protocol: (§1) The ELISA inhibition method was used to determine specificity and cross-reactivity between different hormones and to ensure the degree of human IgG, IgM and IgE estrogen or progesterone binding to estrogen or progesterone in solid phase. […] 100 μl of sera from three different patients with high IgG, IgM or IgE antibodies against 17-α-hydroxyprogesterone was added to all wells. After shaking and incubation for 1 hr at room temperature, addition of enzyme labeled anti-human IgG, IgM or IgE, repeat of incubation, washing, and addition of substrate, color development was measured at 405 nm. Results were calculated as percentage of anti-17-α-hydroxyprogesterone binding to 17-α-hydroxyprogesterone and other hormones. Also, anti-estrogen binding to estrogen and other hormones in solid phase by progesterone in liquid phase was performed and calculated in a similar manner.
(§2) Human sera containing 17-α-hydroxyprogesterone IgG-, IgM- and IgE-binding antibodies were reacted against progesterone, estrogen, hydrocortisone and cholesterol. In comparison to 100% binding of anti-17-α-hydroxyprogesterone-binding to 17-α-hydroxyprogesterone, the IgG anti-17-α-hydroxyprogesterone-binding to progesterone, estrogen, hydrocortisone and cholesterol was 69-77%, 25-30%, 39-53%, and less than 10% respectively (Table 4). The % binding of serum IgM and IgE anti-17-α-hydroxyprogesterone to 17-1-hydroxyprogesterone, progesterone, estrogen, hydrocortisone and cholesterol was similar to the binding of IgG. This binding of anti-17-α-hydroxyprogesterone to progesterone was the highest, followed by hydrocortisone, then estrogen, to almost no binding with cholesterol. Similar to this, human sera with IgG, IgM and IgE binding antibodies against estrogen were reacted with progesterone, 17-α-hydroxyprogesterone, hydrocortisone and cholesterol, in the presence of estrogen.

[2] = test system: serum IgE anti-17-α-hydroxyprogesterone antibodies; assay: ELISA binding of IgE 17-α-hydroxyprogesterone antibodies to different hormones in solid phase; design: species or system human; conditions: for IgE binding (optical density): hormone in solid phase, 405 nm; for IgE % reaction: relative to 17-α-hydroxyprogesterone = 100
Protocol: as §1, §2

[3] = test system: serum IgG anti-estrogen antibodies; assay: ELISA binding of IgG estrogen antibodies to different hormones in solid phase; design: species or system human; conditions: for IgG binding (optical density): hormone in solid phase, 405 nm; for IgG % reaction: relative to estrogen = 100
Protocol: as §1, §2

[4] = test system: serum IgM anti-estrogen antibodies; assay: ELISA binding of IgM estrogen antibodies to different hormones in solid phase; design: species or system human; conditions: for IgM binding (optical density): hormone in solid phase, 405 nm; for IgM % reaction: relative to estrogen = 100
Protocol: as §1, §2

[5] = 0.5 mg intradermal, acute asthma
[6] = of 142 women with acute asthma, 0.5 mg intradermal, 15 to 30 seconds after injection

CC(=O)[C@H]1CC[C@H]2[C@@H]3CCC4=CC(=O)CC[C@]4(C)[C@H]3CC[C@]12C [Progesterone, progesterone]
average symptomatic relief, patients who reported some response (women with acute asthma; 0 to 10 scale): 5 points | average symptomatic relief, all patients (women with acute asthma; 0 to 10 scale, responding and not responding patients): 3.4 points | average reduction in symptoms relative to maximum individual patient score (women with acute asthma; [5]): 62% | patients reporting 100% relief of asthma symptoms (%) (women with acute asthma; [5]): 28% | patients reporting 100% relief of asthma symptoms (number) (women with acute asthma; [5]): 40 | patients who positively responded to the treatment (%) (women with acute asthma; [6]): 91% | patients who positively responded to the treatment (number) (women with acute asthma; [6]): 129 | IgM binding (optical density) ([1]; sample 1): 0.8 | IgM % reaction ([1]; sample 1): −61% | IgM binding (optical density) ([1]; sample 2): 0.79 | IgM % reaction ([1]; sample 2): −77% | IgM binding (optical density) ([1]; sample 3): 0.72 | IgM % reaction ([1]; sample 3): −78% | IgE binding (optical density) ([2]; sample 1): 0.94 | IgE % reaction ([2]; sample 1): −65% | IgE binding (optical density) ([2]; sample 2): 1.7 | IgE % reaction ([2]; sample 2): −71% | IgE binding (optical density) ([2]; sample 3): 0.82 | IgE % reaction ([2]; sample 3): −77% | IgG binding (optical density) ([3]; sample 1): 0.35 | IgG % reaction ([3]; sample 1): −29% | IgG binding (optical density) ([3]; sample 2): 0.48 | IgG % reaction ([3]; sample 2): −27% | IgG binding (optical density) ([3]; sample 3): 0.32 | IgG % reaction ([3]; sample 3): −35% | IgM binding (optical density) ([4]; sample 1): 0.26 | IgM % reaction ([4]; sample 1): −29% | IgM binding (optical density) ([4]; sample 2): 0.65 | IgM % reaction ([4]; sample 2): −31% | IgM binding (optical density) ([4]; sample 3): 0.44 | IgM % reaction ([4]; sample 3): −34%
